Assay results: patent publication US20250388605A1, “HETEROBIFUNCTIONAL COMPOUNDS AND METHODS OF TREATING DISEASE” (Halda Therapeutics OpCo, Inc., priority 2022, published 2025)

Legend:
[1] = system: T47D cells; assay: Cellular Growth Inhibition Assay for T47D Cells (CellTiter-Glo); assay type: cell-based, human; conditions: 72 hours
Description: Exemplary compounds were tested for ability to inhibit the proliferation of T47D cells. T47D cells are a commercially available human breast cancer cell line.
T47D cells were purchased from American Type Cell Culture (ATCC Cat #HTB-133) and then seeded on poly-D-lysine coated, black clear-bottom 384-well plates at 3000/well in 25 μL Dulbecco's Modified Eagle Medium (DMEM) supplemented with 10% w/w Fetal bovine serum (FBS), 0.2 units/mL recombinant human insulin (Gibco Cat #12585014), and 1% w/w Pen-Strep. Pen-Strep is a commercially available mixture of penicillin G and streptomycin, which is used in mammalian cell culture media to prevent bacterial contamination. Dulbecco's Modified Eagle Medium (DMEM) supplemented with 10% w/w fetal bovine serum (FBS), 0.2 units/mL recombinant human insulin, and 1% w/w Pen-Strep is herein referred to as Treatment Medium. Following seeding of cells in the plates, the plates were spun at 300×g for 30 seconds, then equilibrated to room temperature for 30 minutes, and then deposited in a humidified tissue culture incubator maintained at 37° C. with 5% CO2.
At 24 hours after seeding of the cells, dilutions of test compound were prepared in DMSO and dissolved in Treatment Medium, to achieve a final DMSO concentration of 0.5% w/w, thereby providing the Test Compound Solution. A 25 μL aliquot of the Test Compound Solution was added to cells in the well plates. An equal volume of a solution containing DMSO and Treatment Medium was used as a negative control. Following treatment of cells with Test Compound Solution or said equal volume of a solution containing DMSO and Treatment Medium, the plates were spun at 300×g for 30 seconds, and then left in an incubator for 72 hours.
At the end of the treatment duration, cell viability was quantified with CellTiter-Glo 2.0 reagent (Promega Cat #G9243). For this purpose, plates were equilibrated to room temperature for 30 minutes, and then 25 μL of CellTiter-Glo 2.0 reagent was added to cells in the plate wells. Plates were then agitated on a shaker for two minutes at 500 rpm and subsequently incubated at room temperature for 10 minutes. Following incubation, the plates were spun at 3000×g for 30 seconds, then sealed with an optical adhesive cover, and luminescence readings were measured with an EnVision Plate Reader (Perkin Elmer).
Data was normalized using zero luminescence for baseline. A four-parameter non-linear regression curve fit was applied to dose-response data in GraphPad Prism data analysis software to determine the half-maximal growth inhibitory concentration (GI50) for each test compound.

[2] = system: VCaP cells; assay: Cellular growth inhibition assay for VCaP cells, CellTiter-Glo; assay type: cell-based, human; conditions: 72 hours
In short: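 GI50 values come from four-parameter curve fits of luminescence data normalized to a zero baseline. Compound, in medium with 0.5% DMSO, was added one day after plating and left for 72 h before CellTiter-Glo 2.0 addition.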

[3] = system: T-Rex 293 cell line SC3 cells having increased expression of androgen receptor protein due to exposure to doxycycline; assay: Cellular growth inhibition, T-Rex 293 SC3 cells with doxycycline (increased androgen receptor expression), CellTiter-Glo; assay type: cell-based; conditions: T-Rex 293 SC3 cells with 10 ng/mL doxycycline (increased androgen receptor expression), 72 hours, CellTiter-Glo 2.0
In short: (§1)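 Doxycycline (10 ng/mL) was either included or omitted to toggle wild-type androgen receptor expression in SC3 cells, a T-Rex 293 clone, grown in stripped-serum, phenol red-free medium. After 72 hours with compound, viable cells were quantified by CellTiter-Glo 2.0.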

[4] = system: T-Rex 293 cell line SC3 cells lacking increased expression of androgen receptor protein; assay: Cellular growth inhibition, T-Rex 293 SC3 cells without doxycycline (no increased androgen receptor expression), CellTiter-Glo; assay type: cell-based; conditions: T-Rex 293 SC3 cells not exposed to doxycycline (no increased androgen receptor expression), 72 hours
In short: as §1

| SMILES | GI50 ([1]; Homo sapiens) | GI50 ([2]; Homo sapiens) | GI50 [3] | GI50 [4] | GI50 [1] | GI50 [2] |
| --- | --- | --- | --- | --- | --- | --- |
| Cn1cc(-c2cc(S(C)(=O)=O)ccc2Oc2cccc(N3CC(CC4CCN(c5ncc(C(=O)NC6C(C)(C)C(Oc7ccc(C#N)c(Cl)c7)C6(C)C)cn5)CC4)C3)c2F)c2cc[nH]c2c1=O (stereo not shown) [Compound I-189, N-[3-(3-chloro-4-cyano-phenoxy)-2,2,4,4-tetramethyl-cyclobutyl]-2-[4-[[1-[2-fluoro-3-[2-(6-methyl-7-oxo-1H-pyrrolo[2,3-c]pyridin-4-yl)-4-methylsulfonyl-phenoxy]phenyl]azetidin-3-yl]methyl]-1-piperidyl]pyrimidine-5-carboxamide] | < 500 nM | > 3000 nM | < 500 nM | > 3000 nM | – | – |
| CCS(=O)(=O)Cc1ccc(Oc2cccc(OC(C)(C)CCC3CCN(c4ncc(C(=O)N[C@H]5C(C)(C)[C@H](Oc6ccc(C#N)c(Cl)c6)C5(C)C)cn4)CC3)c2)c(-c2cn(C)c(=O)c3[nH]ccc23)c1 [Compound I-293] | – | – | < 500 nM | > 3000 nM | < 500 nM | < 500 nM |
| Cn1cc(-c2cc(C(C)(C)O)ccc2Oc2ccc(CCCC3CN(c4ncc(C(=O)N[C@H]5C(C)(C)[C@H](Oc6ccc(C#N)c(Cl)c6)C5(C)C)cn4)CCO3)cc2)c2cc[nH]c2c1=O (stereo partly shown) [Compound I-307] | – | – | < 500 nM | > 3000 nM | < 500 nM | < 500 nM |
| Cn1cc(-c2cc(C(C)(C)O)ccc2OCC2(C(=O)N3CC(OC4CCN(c5ncc(C(=O)N[C@H]6C(C)(C)[C@H](Oc7ccc(C#N)c(Cl)c7)C6(C)C)cn5)CC4)C3)CC2)c2cc[nH]c2c1=O [Compound I-267] | – | – | < 500 nM | 500 to 1500 nM | 500 to 1500 nM | < 500 nM |
| CCS(=O)(=O)c1ccc(Oc2ccc(CCN3CC4(C3)CN(c3ncc(C(=O)N[C@H]5C(C)(C)[C@H](Oc6ccc(C#N)c(Cl)c6)C5(C)C)cn3)CCO4)cc2)c(-c2cn(C)c(=O)c3[nH]ccc23)c1 [Compound I-262] | – | – | < 500 nM | < 500 nM | < 500 nM | < 500 nM |
| CC(C)c1ccc(Oc2cccc(N3CC(N4CCN(c5ncc(C(=O)N[C@H]6C(C)(C)[C@H](Oc7ccc(C#N)c(Cl)c7)C6(C)C)cn5)CC4)C3)c2)c(-c2cn(C)c(=O)c3[nH]ccc23)c1 [Compound I-122, N-[3-(3-chloro-4-cyano-phenoxy)-2,2,4,4-tetramethyl-cyclobutyl]-2-[4-[1-[3-[4-isopropyl-2-(6-methyl-7-oxo-1H-pyrrolo[2,3-c]pyridin-4-yl)phenoxy]phenyl]azetidin-3-yl]piperazin-1-yl]pyrimidine-5-carboxamide] | 500 to 1500 nM | > 3000 nM | < 500 nM | > 3000 nM | – | – |
| Cn1cc(-c2cc(C(C)(C)O)ccc2O[C@H]2C[C@H](CC3CCN(c4ncc(C(=O)N[C@H]5C(C)(C)[C@H](Oc6ccc(C#N)c(Cl)c6)C5(C)C)cn4)CC3)C2)c2cc[nH]c2c1=O [Compound I-309, N-[3-(3-chloro-4-cyano-phenoxy)-2,2,4,4-tetramethyl-cyclobutyl]-2-[4-[[3-[4-(1-hydroxy-1-methyl-ethyl)-2-(6-methyl-7-oxo-1H-pyrrolo[2,3-c]pyridin-4-yl)phenoxy]cyclobutyl]methyl]-1-piperidyl]pyrimidine-5-carboxamide] | < 500 nM | < 500 nM | < 500 nM | 500 to 1500 nM | – | – |
| Cn1cc(-c2cc(C(C)(C)O)ccc2Oc2ccc(OC[C@@H]3CCCN(c4ncc(C(=O)N[C@H]5C(C)(C)[C@H](Oc6ccc(C#N)c(Cl)c6)C5(C)C)cn4)C3)cc2)c2cc[nH]c2c1=O [Compound I-339] | < 500 nM | > 3000 nM | < 500 nM | > 3000 nM | – | – |
| CCS(=O)(=O)Cc1ccc(Oc2cccc(N3CC(N4CCN(c5ncc(C(=O)N[C@H]6C(C)(C)[C@H](Oc7ccc(C#N)c(Cl)c7)C6(C)C)cn5)CC4)C3)c2)c(-c2cn(C)c(=O)c3[nH]ccc23)c1 [Compound I-114] | < 500 nM | < 500 nM | < 500 nM | < 500 nM | – | – |
| CCS(=O)(=O)Nc1ccc(Oc2cccc(N3CCC(N(C)C4CCN(c5ncc(C(=O)N[C@H]6C(C)(C)[C@H](Oc7ccc(C#N)c(Cl)c7)C6(C)C)cn5)CC4)C3)c2)c(-c2cn(C)c(=O)c3[nH]ccc23)c1 (stereo partly shown) [Compound I-41] | < 500 nM | < 500 nM | < 500 nM | 500 to 1500 nM | – | – |
| CC(C)c1ccc(Oc2cccc(CCOC3CCN(c4ncc(C(=O)N[C@H]5C(C)(C)[C@H](Oc6ccc(C#N)c(Cl)c6)C5(C)C)cn4)CC3)c2F)c(-c2cn(C)c(=O)c3[nH]ccc23)c1 [Compound I-148] | – | – | < 500 nM | > 3000 nM | 500 to 1500 nM | < 500 nM |
| CCS(=O)(=O)c1ccc(Oc2ccc(CC3CCN(c4ncc(C(=O)N[C@H]5C(C)(C)[C@H](Oc6ccc(C#N)c(Cl)c6)C5(C)C)cn4)CC3)c(F)c2)c(-c2cn(C)c(=O)c3[nH]ccc23)c1 [Compound I-278] | < 500 nM | < 500 nM | < 500 nM | > 3000 nM | – | – |
| Cn1cc(-c2cc(S(C)(=O)=O)ccc2Oc2cccc(CCCC3CCN(c4ncc(C(=O)NC5C(C)(C)C(Oc6ccc(C#N)c(Cl)c6)C5(C)C)cn4)CC3)c2)c2cc[nH]c2c1=O (stereo not shown) [Compound I-249, N-[3-(3-chloro-4-cyano-phenoxy)-2,2,4,4-tetramethyl-cyclobutyl]-2-[4-[3-[3-[2-(6-methyl-7-oxo-1H-pyrrolo[2,3-c]pyridin-4-yl)-4-methyl-sulfonyl-phenoxy]phenyl]propyl]-1-piperidyl]pyrimidine-5-carboxamide] | 500 to 1500 nM | 500 to 1500 nM | < 500 nM | > 3000 nM | – | – |
| Cn1cc(-c2cc(C(C)(C)O)ccc2Oc2ccc(C(C)(C)N3CC4(CCN(c5ncc(C(=O)N[C@H]6C(C)(C)[C@H](Oc7ccc(C#N)c(Cl)c7)C6(C)C)cn5)CC4)C3)cc2)c2cc[nH]c2c1=O [Compound I-308] | > 3000 nM | < 500 nM | < 500 nM | 500 to 1500 nM | – | – |
| Cn1cc(-c2cc(C(C)(C)O)ccc2O[C@H]2C[C@H](CCC3CCN(c4ncc(C(=O)N[C@H]5C(C)(C)[C@H](Oc6ccc(C#N)c(Cl)c6)C5(C)C)cn4)CC3)C2)c2cc[nH]c2c1=O [Compound I-310] | – | – | < 500 nM | < 500 nM | < 500 nM | < 500 nM |
| Cn1cc(-c2cc(C(C)(C)O)ccc2Oc2ccc(N3CC4(CCCN(c5cnc(C(=O)N[C@H]6C(C)(C)[C@H](Oc7ccc(C#N)c(Cl)c7)C6(C)C)cn5)C4)C3)cc2)c2cc[nH]c2c1=O [Compound I-342] | – | – | < 500 nM | > 3000 nM | < 500 nM | < 500 nM |
| CC(=O)Nc1ccc(Oc2cccc(OCCOC3CCN(c4ncc(C(=O)N[C@H]5C(C)(C)[C@H](Oc6ccc(C#N)c(Cl)c6)C5(C)C)cn4)CC3)c2)c(-c2cn(C)c(=O)c3[nH]ccc23)c1 [Compound I-57, 2-(4-(2-(3-(4-acetamido-2-(6-methyl-7-oxo-6,7-dihydro-1H-pyrrolo [2,3-c]pyridin-4-yl)phenoxy)phenoxy)ethoxy)piperidin-1-yl)-N-((1r, 3r)-3-(3-chloro-4-cyanophenoxy)-2,2,4,4-tetramethylcyclobutyl)pyrimidine-5-carboxamide] | < 500 nM | < 500 nM | < 500 nM | 500 to 1500 nM | – | – |
| Cn1cc(-c2cc(C(C)(C)O)ccc2Oc2ccc(N3CC(CC4CCN(c5ccc(C(=O)N[C@H]6C(C)(C)[C@H](Oc7ccc(C#N)c(Cl)c7)C6(C)C)nc5)CC4)C3)cc2)c2cc[nH]c2c1=O [Compound I-338] | 500 to 1500 nM | > 3000 nM | > 3000 nM | > 3000 nM | – | – |
| CCS(=O)(=O)Nc1ccc(Oc2ccc(N3CC(CC4CCN(c5ncc(C(=O)N[C@H]6C(C)(C)[C@H](Oc7ccc(C#N)c(Cl)c7)C6(C)C)cn5)CC4)C3)cc2)c(-c2cn(C)c(=O)c3[nH]ccc23)c1 [Compound I-337] | < 500 nM | < 500 nM | < 500 nM | > 3000 nM | – | – |
